The test system of test [1] is Medicago lupulina (black medic). The test is described as follows: Glasshouse trial, control of black medic, post-emergence application. Format: in vivo. The settings on record: ethofumesate 210 g ai/ha plus mesotrione at 100 g ai/ha. The protocol:
A glasshouse trial was carried out. Goosegrass seeds were sown into standard glasshouse potting mix (1:1 v/v Promix: Vero sand soil) contained in 10 cm square plastic pots. Treatments were replicated three times. Mesotrione (in the form Callisto® 480SE) was applied post-emergence to goosegrass (Eleusine indica) at either 100 g ai/ha or 200 g ai/ha with or without ethofumesate (in the form Prograss®). When used, ethofumesate was applied at a rate of 210 g ai/ha, 420 g ai/ha or 840 g ai/ha. The adjuvant system was X-77 at 0.1% v/v in deionised water. 200 litres of herbicide/adjuvant system was used per hectare. General weed control was evaluated at 7 and 14 days after treatment (DAT). It is noted that all herbicides were applied at reduced field rates because herbicide effects are magnified in a glasshouse environment. Rates were chosen to give a 50 to 70% level of control with herbicides applied alone as this allows for detection of any synergistic effect when tank mixtures are used. The results were evaluated using the Colby formula. The expected result for (A+B) is (A+B)−(A×B/100) where A and B are the ‘observed’ results for A and B on their own. […] A glasshouse trial was carried out as described in Example 1, except that Medicago lupulina (black medic) was used in place of goosegrass, and only one rate combination was tested.

Test [2] has as its system goosegrass (Eleusine indica). The test is described as follows: Glasshouse trial, control of goosegrass, post-emergence application. Format: in vivo. Further details: key: % weed control; expected = A+B−(A×B/100) (Colby). The following applies: for Actual (weed control): X-77 0.1% v/v, * indicates synergy. As for the experimental part: In the following tests, herbicides were applied at reduced field rates because herbicide effects are magnified in a glasshouse environment. The rates tested were selected to give between about 50 and 70% control with herbicides applied alone, so that any synergistic effect could be readily detected when testing mixtures. A glasshouse trial was carried out. Goosegrass seeds were sown into standard glasshouse potting mix (1:1 v/v Promix: Vero sand soil) contained in 10 cm square plastic pots. Treatments were replicated three times. Mesotrione (in the form Callisto® 480SE) was applied post-emergence to goosegrass (Eleusine indica) at either 100 g ai/ha or 200 g ai/ha with or without ethofumesate (in the form Prograss®). When used, ethofumesate was applied at a rate of 210 g ai/ha, 420 g ai/ha or 840 g ai/ha. The adjuvant system was X-77 at 0.1% v/v in deionised water. 200 litres of herbicide/adjuvant system was used per hectare. General weed control was evaluated at 7 and 14 days after treatment (DAT). It is noted that all herbicides were applied at reduced field rates because herbicide effects are magnified in a glasshouse environment. Rates were chosen to give a 50 to 70% level of control with herbicides applied alone as this allows for detection of any synergistic effect when tank mixtures are used. The results were evaluated using the Colby formula. The expected result for (A+B) is (A+B)−(A×B/100) where A and B are the ‘observed’ results for A and B on their own.

[3] abbreviates: ethofumesate 210 g ai/ha plus mesotrione at 200 g ai/ha.
The mark [4] stands for this setting: ethofumesate 420 g ai/ha plus mesotrione at 100 g ai/ha.
Setting [5] is: ethofumesate 420 g ai/ha plus mesotrione at 200 g ai/ha.
Where [6] appears, read: ethofumesate 840 g ai/ha plus mesotrione at 100 g ai/ha.
The mark [7] stands for this setting: ethofumesate 840 g ai/ha plus mesotrione at 200 g ai/ha.

The values that follow come from patent publication US20100311585A1, “HERBICIDAL COMPOSITION AND METHOD OF USE THEREOF” (SYNGENTA CROP PROTECTION, INC., priority 2007, published 2010).

In the case of `CCOC1Oc2ccc(OS(C)(=O)=O)cc2C1(C)C` (racemic) [Ethofumesate, (±)-2-ethoxy-2,3-dihydro-3,3-dimethylbenzofuran-5-yl methanesulfonate], the “Expected (weed control, Colby formula)” value in test [1] is given as 85; in test [2] (setting [3]), 30; in test [2] (setting [4]) it was 25; in test [2] (setting [5]), 30; in test [2] (setting [6]), 25; in test [2] (setting [7]), 30. Further, the “Actual (weed control)” value in test [1] (* indicates synergy) is 94*; in test [2] (setting [3]), 45*; in test [2] (setting [4]) it was 37*; in test [2] (setting [5]), 52*; in test [2] (setting [6]) it was 55*; in test [2] (setting [7]) it was 72*.
